In patent publication US20030225002A1, “Co-therapy for the treatment of migraine comprising anticonvulsant derivatives and anti-migraine agents” (priority 2002, published 2003):

Columns and labels:
[1] = system: severe refractory migraine with and without aura; test: Case Study 3: severe refractory migraine with and without aura; assay type: in vivo, human
Protocol: The patient was a person with a twenty-year history of severe refractory migraine with and without aura. […] The patient was started on topiramate at 50 mg/day increasing to 100 mg in the morning and 100 mg in the evening, in combination with INDERAL at 160 mg/day. […] After about 6 months, the patient was prescribed EFFEXOR XR (vanlafaxine HCl) at 37 mg/day, an increased topiramate dose of 125 mg in the morning and 150 mg in the evening, and 160 mg/day INDERAL.

subjects with migraine = test: Clinical Study Trials #1 and #2: severity of phonophobia associated with migraine headaches; assay type: in vivo, human; settings: for Severity of Phonophobia Associated With Migraine Headaches, Baseline / Severity of Phonophobia Associated With Migraine Headaches, Double-Blind / Severity of Phonophobia Associated With Migraine Headaches, Difference: scale 0 to 3; for Severity of Phonophobia Associated With Migraine Headaches, Baseline / Severity of Phonophobia Associated With Migraine Headaches, Double-Blind: triptan rescue therapy; for Severity of Phonophobia Associated With Migraine Headaches, Double-Blind: Double-Blind Phase; for Severity of Phonophobia Associated With Migraine Headaches, Difference: Double-Blind minus Baseline
Protocol: The primary objective of these studies was to evaluate the safety and efficacy of three doses of topiramate (50, 100, and 200 mg/day) versus placebo in the prophylaxis of migraine based on the change in the monthly (28 day) migraine period rate from the Prospective Baselin,e Period to the Double-Blind Phase. The secondary objectives for the studies were to assess dose response relationship, and to evaluate the effect of prophylactic treatment with topiramate (50, 100, and 200 mg/day) versus placebo on Health-Related Quality of Life (HRQL).
The studies were randomized, double-blind, placebo-controlled, parallel-group, multicenter studies. Male and female subjects were randomized equally to the four treatment groups.
While the IHS criteria was used to establish the diagnosis at study entry, the evaluation of efficacy was based on migraine periods. A migraine period was defined as the length of time between the onset and cessation of painful migraine symptoms. This period could last up to, but no longer than, 24 hours. If the painful symptoms persisted more than 24 hours after their initial onset, this was considered to be a new, distinct migraine period. If symptoms recurred within 24 hours of the initial onset, this was considered part of the same, initial period.
Subjects who completed the Baseline Phase and met the entry criteria were randomized to one of four treatment groups: 50 mg/day topiramate, 100 mg/day topiramate, 200 mg/day topiramate or placebo. The Double-Blind Phase had two periods: Titration and Maintenance, which are described in more detail below.
The Titration Period immediately followed the Baseline Phase and extended for eight weeks (56 days). During this period, subjects randomized to topiramate were started at a dose of 25 mg/day and the daily dose was increased by 25 mg weekly until they reach their assigned dose (or maximum tolerated dose, whichever is less). From the third week of Titration until the end of the Maintenance Period, a maximum of two dose level reductions were permitted for unacceptable tolerability problems. If the subject was still in the Titration Period after a dose reduction, rechallenge may have occurred in an attempt to achieve the subject's assigned dose, and, if unsuccessful, the dose may have been reduced again to the original reduced dose. Subjects who had their study medication dose decreased twice, and were still experiencing unacceptable tolerability problems that warranted additional dose reductions, exited the study. Clinic visits occurred on Day 29 (Visit 3) and Day 57 (Visit 4/End of Titration).
During this 18-week period, the subjects remained on the dose of study medication reached at the end of the Titration Period (the assigned dose or the maximum tolerated dose). If the subject experienced unacceptable tolerability problems, the dose was reduced, only one dose reduction was permitted in the maintenance. No rechallenge was permitted during the Maintenance Period, so that subject continued on the reduced dose for the remainder of the period. Subjects who already had their study medication dose decreased by two levels, and were still experiencing unacceptable tolerability problems that warranted additional dose reductions exited the study. Clinic visits occurred on Day 85 (Visit 5), Day 113 (Visit 6), Day 141 (Visit 7) and Day 183 (Visit 8/ Double-Blind Final Visit or Early Withdrawal).
Subjects were randomized to one of four treatment groups: a) placebo, b) 50 mg/day topiramate, c) 100 mg/day topiramate, or d) 200 mg/day topiramate. All subjects received study medication in a b.i.d. dosing regimen except during the first week of Titration, during which they took single evening doses.
In keeping with good pain management practices, subjects enrolled in these studies were permitted to take acute abortive/rescue medication as indicated for the treatment of pain during migraine/headache attacks. […]

CC1(C)O[C@@H]2[C@@H](CO[C@@]3(COS(N)(=O)=O)OC(C)(C)O[C@@H]23)O1 [topiramate, 2,3:4,5-bis-O-(1-methylethylidene)-β-D-fructopyranose sulfamate]
Response of severe refractory migraine ([1]; topiramate 100 mg in the morning and 100 mg in the evening with INDERAL at 160 mg/day): initial positive response, but the headaches broke through
Response of severe refractory migraine ([1]; topiramate 125 mg morning and 150 mg evening, EFFEXOR XR 37 mg/day, INDERAL 160 mg/day): Modest but sustained improvement
Severity of Phonophobia Associated With Migraine Headaches, Baseline (subjects with migraine; TPM 50 mg): 1.65
Severity of Phonophobia Associated With Migraine Headaches, Double-Blind (subjects with migraine; TPM 50 mg): 1.59
Severity of Phonophobia Associated With Migraine Headaches, Difference (subjects with migraine; TPM 50 mg): −0.06
Severity of Phonophobia Associated With Migraine Headaches, Baseline (subjects with migraine; TPM 100 mg): 1.72
Severity of Phonophobia Associated With Migraine Headaches, Double-Blind (subjects with migraine; TPM 100 mg): 1.58
Severity of Phonophobia Associated With Migraine Headaches, Difference (subjects with migraine; TPM 100 mg): −0.15
Severity of Phonophobia Associated With Migraine Headaches, Baseline (subjects with migraine; TPM 200 mg): 1.50
Severity of Phonophobia Associated With Migraine Headaches, Double-Blind (subjects with migraine; TPM 200 mg): 1.47
Severity of Phonophobia Associated With Migraine Headaches, Difference (subjects with migraine; TPM 200 mg): −0.03
Statistical significance of effect, text under Table 5 (in words) (subjects with migraine; patients taking 100 mg topiramate in Study 1): Statistically significant differences in the severity of nausea
Effect on severity of associated phonophobia (in words) (subjects with migraine; topiramate with triptan rescue medication vs triptan rescue alone, measurable at 50 mg and 100 mg): decreased the severity of associated phonophobia
